Assay results taken from publication PMC12040169 (PLOS Biology, 2025).

Assay: in vitro
Conditions: human, hela cells, % viability

Row | Structure (SMILES) | viability at 28.5 h, 10 µM [%] | viability at 28.5 h, 10 µM (bulk resorufin, single well) [%]
1 | Cc1c(Cc2ccccc2)c(N2CCN(C3c4ccccc4-c4ccccc43)CC2)n2c(nc3ccccc32)c1C#N [CBK263124] | 111 | 
2 | O=C(Nc1cccc(-c2nc3ncccc3o2)c1)c1cccc(OCc2ccccc2)c1 [CBK263126] | 86.2 | 
3 | Cc1cc(I)ccc1NC(=O)CCN1C(=O)c2cccc([N+](=O)[O-])c2C1=O [CBK263128] | 88.3 | 
4 | O=C(Nc1cccnc1)C1c2ccccc2Oc2ccccc21 [CBK263129] | 98.6 | 
5 | CCOC(=O)CN1C(c2ccccc2O)Nc2ccc(Br)cc2C1c1ccccc1 (stereo not drawn) [CBK263130] | 90.5 | 
6 | COC(=O)CN1C(c2ccccc2O)Nc2ccc(Br)cc2C1c1ccccc1 (stereo not drawn) [CBK263133] | 91.1 | 
7 | COC(=O)c1ccc(NC(=O)CCN2C(=O)c3cccc([N+](=O)[O-])c3C2=O)cc1 [CBK263137] | 98.1 | 
8 | O=C(Nc1cccc(-c2nc3ncccc3o2)c1)c1ccc(OCc2ccccc2)cc1 [CBK263139] | 102 | 
9 | COc1ccc(C2=Nc3ccc(Br)cc3C(c3ccccc3)N2CC(=O)NN)cc1 (stereo not drawn) [CBK263141] | 95.8 | 
10 | CCn1c2ccccc2c2cc(CN3CCN(Cc4cccc(F)c4)CC3)ccc21 [CBK263143] | 90.5 | 
11 | NNc1nccc(Nc2ccccc2C(=O)O)n1 [CBK263145] | 95.9 | 
12 | O=C1CSC(c2cn(-c3ccccc3)nc2-c2ccc(Br)cc2)N1Cc1ccccc1 (stereo not drawn) [CBK263146] | 97.4 | 
13 | COc1ccc(CCNc2c3c(c(C#N)c4nc5ccccc5n24)CCC3)cc1OC [CBK263147] | 97.9 | 
14 | O=C1NC(=S)NC(=O)C1=Cc1cn(-c2ccccc2)nc1-c1ccc(-c2ccc([N+](=O)[O-])cc2)o1 [CBK263149] |  | 107
15 | COC(=O)c1ccccc1NC(=O)COc1ccc(Br)c(C)c1 [CBK263152] | 89.4 | 
16 | S=C(Nc1ccc2nc3c4ccccc4c4ccccc4c3nc2c1)N1CCOCC1 [CBK263153] |  | 94.7
17 | O=C(CC1Nc2ccccc2NC1=O)Nc1cccc(C(=O)O)c1 (stereo not drawn) [CBK263155] | 102 | 
18 | COc1cc(CN2CCN(Cc3cccc([N+](=O)[O-])c3)CC2)cc(OC)c1 [CBK263156] | 95 | 
19 | COc1ccc(-c2nnc(SCC(=O)NN)n2-c2ccccc2)cc1 [CBK263157] | 87.3 | 
20 | C=C(C)Cn1c(SCC(=O)O)nnc1-c1ccc([N+](=O)[O-])cc1 [CBK263159] | 89.8 | 

Row | Structure (SMILES) | viability at 28.5 h, 10 µM [%] | viability at 28.5 h, 10 µM (bulk resorufin, single well) [%]
21 | COc1ccc(NC(=O)c2ccc3nsnc3c2)cc1 [CBK263160] | 92.6 | 
22 | CCn1c2ccccc2c2cc(CN3CCN(Cc4c[nH]c5ccccc45)CC3)ccc21 [CBK263167] | 89.3 | 
23 | Cc1ccc(NC(=O)CCN2C(=O)c3cccc([N+](=O)[O-])c3C2=O)c(Br)c1 [CBK263172] | 98 | 
24 | O=C(CSc1nc2ccccc2n1Cc1ccccc1)N/N=C/c1ccco1 [CBK263174] | 89.6 | 
25 | CC(=O)Oc1ccccc1C(=O)Oc1ccc2c(c1)c(C(C)=O)c(C)n2-c1ccccc1 [CBK263175] | 89.2 | 
26 | CC1C(=O)N(c2ccc(Cl)c(Cl)c2)C(=N)N1c1nc(N(C)C)nc(N(C)C)n1 (stereo not drawn) [CBK263182] | 93.2 | 
27 | Nn1cnn2c(SCC(=O)c3cccs3)nnc12 [CBK263184] | 105 | 
28 | N#C/C(=C/c1ccc(OCc2ccc(C(=O)O)cc2)cc1)C(=O)Nc1ccc(Cl)cc1 [CBK263187] | 98.2 | 
29 | CCOc1cccc(NC(=O)/C(C#N)=C\c2cc(C)n(-c3ccc4c(c3)OCO4)c2C)c1 [CBK263191] | 85.9 | 
30 | Nn1cnn2c(SCCSC3CCCCC3)nnc12 [CBK263192] | 108 | 
31 | O=C(CSc1nnc2c(n1)[nH]c1ccccc12)Nc1ccccc1[N+](=O)[O-] [CBK263195] | 100 | 
32 | Cc1[nH]c(=O)[nH]c1C(=O)CCCCC(=O)O [CBK263197] | 94 | 
33 | Cc1cc(-c2ccccc2)sc1C(=O)/C=C(\O)C(=O)O [CBK263198] | 100 | 
34 | COc1ccc(C(=O)N/C(=C/c2ccc([N+](=O)[O-])cc2)c2nc3ccc(C(F)(F)F)cc3[nH]2)cc1OC [CBK263199] | 104 | 
35 | O=[N+]([O-])c1ccc2c(c1)C(N1CCOCC1)/C(=C/C1(O)CCCCC1)O2 (stereo not drawn) [CBK263200] | 103 | 
36 | O=C(O)c1ccc(Br)c(S(=O)(=O)NCc2ccccc2)c1 [CBK263202] | 90.8 | 
37 | N#Cc1c(NC(=O)c2cc(S(=O)(=O)N3CCOCC3)c(Cl)cc2Cl)sc2c1CCCC2 [CBK263204] | 95.7 | 
38 | CCN(CC)S(=O)(=O)c1ccc(Cl)c(C(=O)Oc2cccc3cccnc23)c1 [CBK263205] | 118 | 
39 | O=C(c1coc2ccc(O)c(CN3CCCCC3)c12)C1CC1 [CBK263206C] | 93.7 | 
40 | O=S(=O)(NCc1ccccc1)c1cc(S(=O)(=O)c2ccc(Cl)cc2)ccc1Cl [CBK263207] | 109 | 

Row | Structure (SMILES) | viability at 28.5 h, 10 µM [%] | viability at 28.5 h, 10 µM (bulk resorufin, single well) [%]
41 | Cc1ccc(NC(=O)/C(C#N)=C/c2ccc(-c3ccccc3C(=O)O)o2)cc1Cl [CBK263208] | 102 | 
42 | COc1ccc(NS(=O)(=O)c2ccc(Cl)c(C(=O)Nc3ccccc3C(=O)O)c2)cc1 [CBK263209] | 104 | 
43 | O=C(Oc1cccc2cccnc12)c1cc(S(=O)(=O)N2CCOCC2)ccc1Cl [CBK263210] | 91.3 | 
44 | Cc1ccc(C(=O)Oc2cccc(NC(=O)c3ccco3)c2)cc1S(=O)(=O)N1CCOCC1 [CBK263211] | 94.1 | 
45 | Cc1ccc(C(=O)Nc2ccccc2C(=O)O)cc1S(=O)(=O)NCc1ccccc1 [CBK263212] | 98.7 | 
46 | Cc1cc(C)nc(SCC(=O)Nc2cccc(C(=O)O)c2)n1 [CBK263214] | 101 | 
47 | Cc1ccc(-c2nnc(-c3cccc(S(=O)(=O)N4CCOCC4)c3)o2)cc1 [CBK263215] | 112 | 
48 | COc1ccc(Br)cc1/C=N/NC(=O)C1CC(c2ccccc2)(c2ccccc2)C1 [CBK263218] | 88.8 | 
49 | CCOC(=O)c1c(NC(=O)CSc2nc3ccccc3s2)sc2c1CCC2 [CBK263220] | 93 | 
50 | COc1ccc(CCNC(=O)C(=O)Nc2ccc(C)c(C)c2)cc1 [CBK263222] | 91.1 | 
51 | Cc1cc(C)nc(SCC(=O)Nc2ccc(C(=O)O)cc2)n1 [CBK263223] | 97.8 | 
52 | CCOC(=O)c1c(NC(=O)CN2CCCCC2)sc2c1CCCC2=O [CBK263224] | 112 | 
53 | O=C(CSc1nc2ccccc2[nH]1)Nc1cccc(C(=O)O)c1 [CBK263225] | 105 | 
54 | O=C(O)c1cccc(NC(=O)c2ccc(CSc3ccc(Br)cc3)cc2)c1 [CBK263226] | 98.3 | 
55 | Cc1cc(S(=O)(=O)Nc2cccc(C(=O)O)c2)c(C)c(S(=O)(=O)c2ccccc2)c1 [CBK263227] | 88.3 | 
56 | N#C/C(=C\c1ccc(C(=O)O)cc1)C(=O)NCC1CCCO1 (stereo not drawn) [CBK263228] | 95 | 
57 | COc1ccc(C2=NN(c3ccccc3)C(c3cn(-c4ccccc4)nc3-c3ccccc3)C2)cc1 (stereo not drawn) [CBK263230] | 88.9 | 
58 | COc1ccc(-n2c(SCC(N)=O)nc3sc4c(c3c2=O)CC(C)(C)OC4)cc1 [CBK263232] | 101 | 
59 | COc1ccc2[nH]c(Sc3c([N+](=O)[O-])nc(C)n3Cc3ccccc3)nc2c1 [CBK263235] | 80.7 | 
60 | O=C(O)CCN1CCn2c3c(c4cc(C5CCCCC5)ccc42)CCCC31 (stereo not drawn) [CBK263236] | 91.4 | 
